Experiments:
Experiment in all cases: normalised response (% of control), CellTox Green; higher = less cell death (100 = DMSO, 0 = benzethonium chloride kill control)
Conditions in all cases: incubation time: 72 h
MDA-MB-231 = test system: MDA-MB-231
Procedure, shortened: (§1)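 Breast cancer cell lines were exposed for 72 h in 384-well plates to compound at 5 concentrations, 10-fold apart, covering a 10,000-fold range fixed for each compound. Plates were read for CellTox Green fluorescence and CellTiter-Glo luminescence and normalised to 0.1 % DMSO (100) and a positive kill control (0). Each value is the normalised signal at one concentration of the series.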

MDA-MB-436 = test system: MDA-MB-436
Procedure, shortened: as §1

CAL-85-1 = test system: CAL-85-1
Procedure, shortened: as §1

Hs578T = test system: Hs578T
Procedure, shortened: as §1

CAL-120 = test system: CAL-120
Procedure, shortened: as §1

MDA-MB-468 = test system: MDA-MB-468
Procedure, shortened: as §1

CAL-51 = test system: CAL-51
Procedure, shortened: as §1

MDA-MB-453 = test system: MDA-MB-453
Procedure, shortened: as §1

MCF-10A = test system: MCF-10A
Procedure, shortened: as §1

CC(C)C(=O)Nc1ccc([N+](=O)[O-])c(C(F)(F)F)c1 [Flutamide] (1000 nM)
normalised response (MDA-MB-231): 98.5% | normalised response (MDA-MB-436): 99.7% | normalised response (CAL-85-1): 101% | normalised response (Hs578T): 108% | normalised response (CAL-120): 102% | normalised response (MDA-MB-468): 144% | normalised response (CAL-51): 98.4% | normalised response (MDA-MB-453): 102% | normalised response (MCF-10A): 97.9%

CC(C)C(=O)Nc1ccc([N+](=O)[O-])c(C(F)(F)F)c1 [Flutamide] (10000 nM)
normalised response (MDA-MB-231): 112% | normalised response (MDA-MB-436): 75.1% | normalised response (CAL-85-1): 103% | normalised response (Hs578T): 124% | normalised response (CAL-120): 98.1% | normalised response (MDA-MB-468): 124% | normalised response (CAL-51): 100% | normalised response (MDA-MB-453): 102% | normalised response (MCF-10A): 106%

Nc1nc(Cl)nc2c1ncn2[C@@H]1O[C@H](CO)[C@@H](O)[C@@H]1F [Clofarabine] (1000 nM)
normalised response (MDA-MB-231): 111% | normalised response (MDA-MB-436): 105% | normalised response (CAL-85-1): 88.3% | normalised response (Hs578T): 95.3% | normalised response (CAL-120): 103% | normalised response (MDA-MB-468): 145% | normalised response (CAL-51): 12.1% | normalised response (MDA-MB-453): 113% | normalised response (MCF-10A): 110%

NC(=O)NO [Hydroxyurea] (100000 nM)
normalised response (MDA-MB-231): 118% | normalised response (CAL-85-1): 85.8% | normalised response (CAL-120): 101% | normalised response (MDA-MB-468): 104% | normalised response (CAL-51): 5.76% | normalised response (MDA-MB-453): 91.5% | normalised response (MCF-10A): 96.7%

O=NN(CCCl)C(=O)NC1CCCCC1 [Lomustine] (10000 nM)
normalised response (MDA-MB-436): 86.5% | normalised response (CAL-85-1): 108% | normalised response (Hs578T): 113% | normalised response (CAL-120): 92.5% | normalised response (MDA-MB-468): 77.9% | normalised response (CAL-51): 108% | normalised response (MDA-MB-453): 100% | normalised response (MCF-10A): 88.2%

O=C(c1cc(Cc2n[nH]c(=O)c3ccccc23)ccc1F)N1CCN(C(=O)C2CC2)CC1 [Olaparib] (1000 nM)
normalised response (MDA-MB-231): 100% | normalised response (MDA-MB-436): 60.6% | normalised response (CAL-85-1): 102% | normalised response (Hs578T): 83.4% | normalised response (CAL-120): 97% | normalised response (MDA-MB-468): 122% | normalised response (CAL-51): 89.5% | normalised response (MDA-MB-453): 112% | normalised response (MCF-10A): 101%

CC(C)C[C@H](NC(=O)[C@H](CCc1ccccc1)NC(=O)CN1CCOCC1)C(=O)N[C@@H](Cc1ccccc1)C(=O)N[C@@H](CC(C)C)C(=O)[C@@]1(C)CO1 [Carfilzomib] (100 nM)
normalised response (MDA-MB-231): -17.7% | normalised response (MDA-MB-436): 18.8% | normalised response (CAL-85-1): -43% | normalised response (Hs578T): 46.7% | normalised response (CAL-120): 11.9% | normalised response (MDA-MB-468): -95.8% | normalised response (CAL-51): 6.93% | normalised response (MDA-MB-453): 90.1% | normalised response (MCF-10A): 69.7%

O=NN(CCCl)C(=O)NC1CCCCC1 [Lomustine] (1000 nM)
normalised response (MDA-MB-231): 90% | normalised response (MDA-MB-436): 84.8% | normalised response (CAL-85-1): 98.6% | normalised response (Hs578T): 98.3% | normalised response (CAL-120): 103% | normalised response (MDA-MB-468): 128% | normalised response (CAL-51): 112% | normalised response (MDA-MB-453): 103% | normalised response (MCF-10A): 96.9%

NC1(c2ccc(-c3nc4ccn5c(=O)[nH]nc5c4cc3-c3ccccc3)cc2)CCC1 [MK-2206] (100 nM)
normalised response (MDA-MB-231): 110% | normalised response (MDA-MB-436): 107% | normalised response (CAL-85-1): 102% | normalised response (Hs578T): 116% | normalised response (CAL-120): 101% | normalised response (MDA-MB-468): 116% | normalised response (CAL-51): 117% | normalised response (MDA-MB-453): 105% | normalised response (MCF-10A): 105%

C[C@@H](C(=O)O)c1ccc(-c2ccccc2)c(F)c1 [Tarenflurbil] (1000 nM)
normalised response (MDA-MB-436): 60.6% | normalised response (CAL-85-1): 87.9% | normalised response (CAL-120): 100% | normalised response (MDA-MB-468): 112% | normalised response (CAL-51): 114% | normalised response (MDA-MB-453): 102% | normalised response (MCF-10A): 91.4%

Cn1nnc2c(C(N)=O)ncn2c1=O [Temozolomide] (10000 nM)
normalised response (MDA-MB-231): 108% | normalised response (MDA-MB-436): 94.4% | normalised response (CAL-85-1): 105% | normalised response (Hs578T): 111% | normalised response (CAL-120): 98.5% | normalised response (MDA-MB-468): 103% | normalised response (CAL-51): 104% | normalised response (MDA-MB-453): 101% | normalised response (MCF-10A): 93.2%

CC/C(=C(\c1ccccc1)c1ccc(OCCN(C)C)cc1)c1ccccc1 [Tamoxifen] (10000 nM)
normalised response (MDA-MB-231): 13.6% | normalised response (Hs578T): 74.1% | normalised response (CAL-120): 83.5% | normalised response (MDA-MB-468): 7.06% | normalised response (CAL-51): 105% | normalised response (MDA-MB-453): 35.6% | normalised response (MCF-10A): 81.5%

CN1CCN(c2nc(C3=C(c4c[nH]c5ccccc45)C(=O)NC3=O)c3ccccc3n2)CC1 [Sotrastaurin] (10000 nM)
normalised response (MDA-MB-231): 115% | normalised response (MDA-MB-436): 68.3% | normalised response (CAL-85-1): 128% | normalised response (Hs578T): 118% | normalised response (CAL-120): 94.2% | normalised response (MDA-MB-468): 194% | normalised response (CAL-51): 94.2% | normalised response (MDA-MB-453): 107% | normalised response (MCF-10A): 104%

CC(C)C[C@H](NC(=O)[C@H](CCc1ccccc1)NC(=O)CN1CCOCC1)C(=O)N[C@@H](Cc1ccccc1)C(=O)N[C@@H](CC(C)C)C(=O)[C@@]1(C)CO1 [Carfilzomib] (1000 nM)
normalised response (MDA-MB-231): -0.32% | normalised response (MDA-MB-436): 38.2% | normalised response (CAL-85-1): -74.2% | normalised response (Hs578T): -63.5% | normalised response (CAL-120): -0.18% | normalised response (MDA-MB-468): -84% | normalised response (CAL-51): 15.1% | normalised response (MDA-MB-453): 91.3% | normalised response (MCF-10A): -56%

C[C@]12C=CC(=O)C=C1CC[C@@H]1[C@@H]2C(=O)C[C@@]2(C)[C@H]1CC[C@]2(O)C(=O)CO [Prednisone] (1000 nM)
normalised response (MDA-MB-231): 116% | normalised response (MDA-MB-436): 101% | normalised response (CAL-85-1): 103% | normalised response (Hs578T): 105% | normalised response (CAL-120): 102% | normalised response (MDA-MB-468): 83.2% | normalised response (CAL-51): 112% | normalised response (MDA-MB-453): 100% | normalised response (MCF-10A): 98.8%

Cc1cc2c(F)c(Oc3ncnn4cc(OC[C@@H](C)O)c(C)c34)ccc2[nH]1 [Brivanib] (100 nM)
normalised response (MDA-MB-231): 115% | normalised response (MDA-MB-436): 81.2% | normalised response (CAL-85-1): 103% | normalised response (CAL-120): 104% | normalised response (MDA-MB-468): 100% | normalised response (CAL-51): 99.4% | normalised response (MDA-MB-453): 103% | normalised response (MCF-10A): 107%

Nc1nc(Cl)nc2c1ncn2[C@@H]1O[C@H](CO)[C@@H](O)[C@@H]1F [Clofarabine] (10000 nM)
normalised response (MDA-MB-231): 90.7% | normalised response (MDA-MB-436): 65.6% | normalised response (CAL-85-1): 60.5% | normalised response (Hs578T): 142% | normalised response (CAL-120): 105% | normalised response (MDA-MB-468): 73.1% | normalised response (CAL-51): 40.6% | normalised response (MDA-MB-453): 95.2% | normalised response (MCF-10A): 110%

From the supplement of paper PMC4862054
